According to patent US8969572B2, “Process for preparing tetrazole-substituted anthranilamide derivatives and novel crystal polymorphs of these derivatives” (Bayer Cropscience AG, priority 2010, dated 2015):

How the values were obtained:
[1] = thermodynamic stability of the crystal polymorph; type: physicochemical
Text: The compound of the formula (I-1) is known from WO2010/069502. To date, only one crystal form of the compound 1-(3-chloropyridin-2-yl)-N-[4-cyano-2-methyl-6-(methylcarbamoyl)phenyl]-3-{[5-(trifluoromethyl)-2H-tetrazol-2-yl]methyl}-1H-pyrazole-5-carboxamide of the formula (I-1) was known, which is referred to hereinafter as polymorph A. Polymorph A has a characteristic x-ray powder diffractogram, Raman spectrum and IR spectrum (Tab. 1-2, FIGS. 2, 3, 5).

[2] = cited from earlier work

Structure (SMILES) | thermodynamic stability of crystal polymorph [1] | pKa [2]
CNC(=O)c1cc(C#N)cc(C)c1NC(=O)c1cc(Cn2nnc(C(F)(F)F)n2)nn1-c1ncccc1Cl [Polymorph A, 1-(3-chloropyridin-2-yl)-N-[4-cyano-2-methyl-6-(methylcarbamoyl)phenyl]-3-{[5-(trifluoromethyl)-2H-tetrazol-2-yl]methyl}-1H-pyrazole-5-carboxamide] | thermodynamically metastable | 
FC(F)(F)c1nnn[nH]1 [5-Trifluoromethyltetrazole] |  | 1.14
